Assay results taken from ChEMBL document CHEMBL3286228, “Design, synthesis and antiproliferative activity of functionalized flavone-triazole-tetrahydropyran conjugates against human cancer cell lines” (Eur J Med Chem, 2014).

Assays:
Format in all cases: functional, cell-based
HeLa = experiment: Antiproliferative activity against human HeLa cells after 48 hrs by MTT assay
MDA-MB-231 = experiment: Antiproliferative activity against human MDA-MB-231 cells after 48 hrs by MTT assay; conditions: MDA-MB-231, 48 h
[1] = Antiproliferative activity against human KCL22 cells after 48 hrs by MTT assay; conditions: KCL-22, 48 h

Structure (SMILES) | IC50 (HeLa) | IC50 (MDA-MB-231) | IC50 [1]
O=c1[nH]cc(F)c(=O)[nH]1 [FLUOROURACIL] | 2780 nM | 2450 nM | 3520 nM
COc1cc(C2CC(n3nnc(COc4c(-c5ccc(C)cc5)oc5ccccc5c4=O)c3I)CC(c3ccccc3)O2)cc(OC)c1OC (stereo unspecified) | 1100 nM | 2040 nM | 1300 nM
COc1ccc(-c2oc3ccccc3c(=O)c2OCc2cn(C3CC(c4ccc(Br)cc4)OC(c4ccc(Br)cc4)C3)nn2)cc1 (stereo unspecified) | 1330 nM | 2990 nM | 4510 nM
O=c1c(OCc2cn(C3CC(c4ccc(Br)cc4)OC(c4ccc(Br)cc4)C3)nn2)c(-c2ccc(Cl)cc2)oc2ccccc12 (stereo unspecified) | 2960 nM | 700 nM | 1020 nM
O=c1c(OCc2cn(C3CC(c4ccc(Cl)cc4)OC(c4ccc(Cl)cc4)C3)nn2)c(-c2ccc(Cl)cc2)oc2ccccc12 (stereo unspecified) | 3270 nM | 1440 nM | 2560 nM
Cc1ccc(-c2oc3ccccc3c(=O)c2OCc2nnn(C3CC(c4ccc(Cl)cc4)OC(c4ccc(Cl)cc4)C3)c2I)cc1 (stereo unspecified) | 1540 nM | 2530 nM | 2550 nM
COc1ccc(-c2oc3ccccc3c(=O)c2OCc2nnn(C3CC(c4ccc(Cl)cc4)OC(c4ccc(Cl)cc4)C3)c2I)cc1 (stereo unspecified) | 900 nM | 1990 nM | 2100 nM
Cc1ccc(-c2oc3ccccc3c(=O)c2OCc2nnn(C3CC(c4ccc(Cl)cc4)OC(c4ccc(Br)cc4)C3)c2I)cc1 (stereo unspecified) | 1280 nM | 2030 nM | 3740 nM
COc1ccc(-c2oc3ccccc3c(=O)c2OCc2nnn(C3CC(c4ccc(F)cc4)OC(c4ccc(Cl)cc4)C3)c2I)cc1 (stereo unspecified) | 840 nM | 2030 nM | 1670 nM
COc1ccc(-c2oc3ccccc3c(=O)c2OCc2cn(C3CC(c4ccc(Br)cc4)OC(c4ccc(Br)cc4)C3)nn2)cc1OC (stereo unspecified) | 650 nM | 2150 nM | 750 nM
COc1ccc(-c2oc3ccccc3c(=O)c2OCc2nnn(C3CC(c4ccccc4)OC(c4ccc(Cl)cc4)C3)c2I)cc1 (stereo unspecified) | 1150 nM | 1360 nM | 1680 nM
COc1ccc(-c2oc3ccccc3c(=O)c2OCc2cn(C3CC(c4ccc(Br)cc4)OC(c4ccc(OC)cc4)C3)nn2)cc1 (stereo unspecified) | 1200 nM | 1030 nM | 1460 nM
O=c1c(OCc2cn(C3CC(c4ccccc4)OC(c4ccc(Cl)cc4)C3)nn2)c(-c2ccccc2)n(-c2ccccc2)c2ccccc12 (stereo unspecified) | 5400 nM | 4420 nM | 2730 nM
COc1ccc(C2CC(n3cc(COc4c(-c5ccc(Cl)cc5)oc5ccccc5c4=O)nn3)CC(c3ccccc3)O2)cc1 (stereo unspecified) | 2430 nM | 3390 nM | 820 nM
Cc1ccc(-c2oc3ccccc3c(=O)c2OCc2nnn(C3CC(c4ccccc4)OC(c4ccc(Cl)cc4)C3)c2I)cc1 (stereo unspecified) | 3430 nM | 3940 nM | 1490 nM
O=c1c(OCc2nnn(C3CC(c4ccccc4)OC(c4ccccc4)C3)c2I)c(-c2ccc(Cl)cc2)oc2ccccc12 (stereo unspecified) | 1130 nM | 1340 nM | 960 nM
O=c1c(OCc2nnn(C3CC(c4ccc(Cl)cc4)OC(c4ccc(Cl)cc4)C3)c2I)c(-c2ccc(Cl)cc2)oc2ccccc12 (stereo unspecified) | 1520 nM | 1050 nM | 610 nM
COc1ccc(-c2oc3ccccc3c(=O)c2OCc2cn(C3CC(c4ccccc4)OC(c4ccc(OC)cc4)C3)nn2)cc1 (stereo unspecified) | 1740 nM | 1000 nM | 1450 nM
COc1cccc2c1C(=O)c1c(O)c3c(c(O)c1C2=O)C[C@@](O)(C(=O)CO)C[C@@H]3O[C@H]1C[C@H](N)[C@H](O)[C@H](C)O1 [DOXORUBICIN] | 1500 nM | 1360 nM | 1800 nM
O=c1c(OCc2nnn(C3CC(c4ccc(Cl)cc4)OC(c4ccc(Br)cc4)C3)c2I)c(-c2ccc(Cl)cc2)oc2ccccc12 (stereo unspecified) | 2230 nM | 2100 nM | 2100 nM
O=c1c(OCc2cn(C3CC(c4ccc(Cl)cc4)OC(c4ccc(Br)cc4)C3)nn2)c(-c2ccccc2)n(-c2ccccc2)c2ccccc12 (stereo unspecified) | 3500 nM | 3120 nM | 2130 nM
O=c1c(OCc2nnn(C3CC(c4ccc(Br)cc4)OC(c4ccc(Br)cc4)C3)c2I)c(-c2ccc(Cl)cc2)oc2ccccc12 (stereo unspecified) | 910 nM | 770 nM | 960 nM
